In US6642237B1, “Gamma-hydroxy-2-(fluoroalkylaminocarbonyl)-1-piperazinepentanamides and uses thereof” (Merck & Co., Inc., priority 1999, dated 2003):

Columns and labels:
[1] = test system: HIV-1 viral constructs Q60, K-60, and V-18 in MT-4 T-lymphoid cells; type: cell-based; settings: concentration reducing spread of infection by at least 95%; MT-4 cells, 4 days postinfection
Procedure: Inhibition of the spread of HIV in cell culture was measured according to Nunberg et al., J. Virol. […] In this assay, MT-4 T-lymphoid cells were infected with HIV-1 (wild-type, unless otherwise indicated) by using a predetermined inoculum, and cultures were incubated for 24 h. At this time, ≦1% of the cells were positive by indirect immunofluorescence. Cells were then extensively washed and distributed into 96-well culture dishes. Serial twofold dilutions of inhibitor were added to the wells, and cultures were continued for 3 additional days. At 4 days postinfection, 100% of the cells in control cultures were infected. HIV-1 p24 accumulation was directly correlated with virus spread. The cell culture inhibitory concentration was defined as the inhibitor concentration in nanomoles/liter which reduced the spread of infection by at least 95%, or CIC95.

HIV = settings: HIV-infected patients; in combination with nucleoside reverse transcriptase inhibitors; cited from earlier work

CC(C)(C)NC(=O)[C@@H]1CN(Cc2cccnc2)CCN1C[C@@H](O)C[C@@H](Cc1ccccc1)C(=O)N[C@H]1c2ccccc2C[C@H]1O [indinavir]
CIC95 against the viral constructs Q60, K-60, and V-18 [1]: greater than 1000 nM | reducing HIV viral loads and increasing CD4 cell counts (HIV): highly effective
